Assay results reported in PubChem BioAssay (NCI).
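In this assay, cells in 96-well plates receive the compound at five concentrations for 48 hours. Endpoints are linearly interpolated between the surrounding concentrations. GI50 marks 50% less growth. TGI: total growth inhibition.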

Key:
Assay in all cases: NCI-60 cell line screen, 48 h
[1] = system: CCRF-CEM leukemia
[2] = system: DMS 273 small cell lung
[3] = system: HOP-18 NSCLC
[4] = system: KM12 colon
[5] = system: MALME-3M melanoma
[6] = system: OVCAR-3 ovarian
[7] = system: SF-268 CNS
[8] = system: SK-MEL-28 melanoma
[9] = system: NCI-H522 lung
[10] = system: T-47D breast

| Compound | TGI [1] [µM] | TGI [2] [µM] | TGI [3] [µM] | TGI [4] [µM] | TGI [5] [µM] | TGI [6] [µM] | TGI [7] [µM] | TGI [8] [µM] | GI50 [1] [µM] | GI50 [4] [µM] | GI50 [5] [µM] | GI50 [9] [µM] | TGI [9] [µM] | GI50 [6] [µM] | GI50 [7] [µM] | GI50 [8] [µM] | GI50 [10] [µM] | TGI [10] [µM] |
| --- | --- | --- | --- | --- | --- | --- | --- | --- | --- | --- | --- | --- | --- | --- | --- | --- | --- | --- |
| COC(=O)c1cc2c3c(ccc2[nH]1)N(C(=O)c1cc2c4c(ccc2[nH]1)N(C(=O)c1cc2c5c(ccc2[nH]1)N(C(N)=O)CC5)CC4)CC3 | > 51.2 | > 100 | > 100 | > 100 | > 24.2 | > 28.9 | > 100 | > 100 |  |  |  |  |  |  |  |  |  |  |
| COc1ccc(/C=C(/C(=O)n2cnnn2)c2cc(OC)c(OC)c(OC)c2)cc1 | > 100 |  |  | > 100 | > 100 | 5.94 | > 100 | > 100 | 3.44 | 1.96 | 7.75 | 2.26 | 6.67 | 2.37 | 4.04 | 7.37 | > 100 | > 100 |
| COc1nc2c(c(O)c(C)c(=O)n2OC2OC(COC(C)=O)C(OC(C)=O)C(OC(C)=O)C2OC(C)=O)c(=O)n1C (stereo not given) | > 100 | > 100 |  | > 100 |  |  | > 100 | > 100 |  |  |  |  | > 100 |  |  |  |  |  |
| O=C(CCN1CCCC1)Nc1ccc2c(Nc3ccccc3)c3ccccc3nc2c1 | 2.14 |  |  | 2.7 | 2.83 | 3.27 | 2.3 | 3.06 | 0.142 | 0.546 | 1.46 | 1.03 | 2.88 | 1.06 | 0.677 | 1.6 | 0.399 | 2.76 |
| COc1ccc(C2NCCc3c2[nH]c2ccccc32)cc1 (stereo not given) | > 100 |  | > 100 | > 100 | > 100 | > 100 | > 100 | > 100 |  |  |  |  | > 100 |  |  |  |  |  |
| CCOC(=O)C[C@@]12CCCNC1(C)CCc1ccccc12 (stereo not given in full) | > 100 | > 100 | > 100 | > 100 | > 100 | > 100 |  |  |  |  |  |  |  |  |  |  |  |  |
| C/C(=N/O)c1ccc2c(c1)C(=NO)c1cc(/C(C)=N/O)ccc1-2 |  | > 100 | 27.4 | 32.9 | 23 | 39.3 | 28.3 | 31.7 |  |  |  |  | 53.3 |  |  |  |  |  |
| C[C@@H]1C/C=C\C(=O)O[C@H](/C=C/C#C/C=C/C(C)(C)[C@@H](O)c2cccc(O)c2Br)[C@@H](C)/C=C/[C@H](C)C[C@H](OC(N)=O)C1 | 33 |  |  | 16.2 | 4.6 | 15.7 | 18.2 | 12.9 | 0.0419 | 0.0252 | 0.0419 | 0.0417 | 14.7 | 0.0636 | 0.0402 | 0.278 | 0.0354 | 22.9 |
| O=C(O)[C@@H]1CCCC[C@@H]1C(=O)N(C1CCCCC1)C1CCCCC1 | > 100 | > 100 |  | > 100 | > 100 | > 100 | > 100 | > 100 |  |  |  |  | > 100 |  |  |  |  |  |
| O=C(O)C1C2C=CC(O2)C1C(=O)Nc1ncccn1 (stereo not given) | > 100 |  |  | > 100 | > 100 | > 100 | > 100 | > 100 |  |  |  |  | > 100 |  |  |  |  | > 100 |
